Test results reported in ChEMBL document CHEMBL1149853, “Cannabinoid ester constituents from high-potency Cannabis sativa” (J Nat Prod, 2008).
Values after ≈ are worked out from the molar mass of the structure shown. Active and inactive are the calls of the source. The calls are words filed in the database; no cut-off is given here.

Key:
[1] = target: Cannabinoid receptor 1 (Homo sapiens) (UniProt P21554); test: Binding affinity to CB1 receptor
Candida albicans = test: Antimicrobial activity against Candida albicans ATCC 90028; format: functional, organism-based
Plasmodium falciparum [2] = test: Antimicrobial activity against Plasmodium falciparum D6; format: functional, organism-based
Plasmodium falciparum [3] = test: Antimicrobial activity against Plasmodium falciparum W2; format: functional, organism-based

Cannabinoid receptor 1 (Homo sapiens), sequence (P21554 whole entry): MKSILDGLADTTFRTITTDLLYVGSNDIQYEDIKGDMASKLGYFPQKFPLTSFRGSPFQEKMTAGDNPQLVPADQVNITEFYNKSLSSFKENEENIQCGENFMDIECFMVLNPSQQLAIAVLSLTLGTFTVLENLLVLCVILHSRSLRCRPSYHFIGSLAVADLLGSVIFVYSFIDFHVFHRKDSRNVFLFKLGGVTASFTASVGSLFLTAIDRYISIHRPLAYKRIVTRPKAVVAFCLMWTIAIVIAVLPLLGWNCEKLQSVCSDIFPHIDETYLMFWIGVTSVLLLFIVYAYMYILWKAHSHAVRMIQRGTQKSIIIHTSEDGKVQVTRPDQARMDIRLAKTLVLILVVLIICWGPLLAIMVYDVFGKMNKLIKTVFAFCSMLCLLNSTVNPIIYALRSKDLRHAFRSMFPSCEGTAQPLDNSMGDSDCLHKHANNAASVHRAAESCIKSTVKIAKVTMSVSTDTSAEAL

| SMILES | Activity [1] | also measured |
| --- | --- | --- |
| CCCCCc1cc2c(c(O)c1C(=O)O[C@H]1C[C@H]3CC[C@]1(C)C3(C)C)[C@@H]1C=C(C)CC[C@H]1C(C)(C)O2 | inactive | – |
| CCCCCc1cc(O)c(C/C=C(\C)CCC=C(C)C)c(O)c1C(=O)O[C@@]1(C)CC[C@@H](C(C)C)[C@@H]2C=C(C)CC[C@H]21 | inactive | – |
| CCCCCc1cc2c(c(O)c1C(=O)O[C@H]1C[C@H]3CC[C@@]1(C)C3(C)C)[C@@H]1C=C(C)CC[C@H]1C(C)(C)O2 | inactive | – |
| CCCCCc1cc2c(c(O)c1C(=O)O[C@@H]1C(C)(C)[C@@H]3CC[C@@]1(C)C3)[C@@H]1C=C(C)CC[C@H]1C(C)(C)O2 | inactive | – |
| CCCCCc1cc2c(c(O)c1C(=O)OC(C)(C)C1CC=C(C)CC1)[C@@H]1C=C(C)CC[C@H]1C(C)(C)O2 (some centres not stated) | inactive | – |
| CCCCCc1cc2c(c(O)c1C(=O)O[C@H]1C(C)(C)[C@@H]3CC[C@@]1(C)C3)[C@@H]1C=C(C)CC[C@H]1C(C)(C)O2 | inactive | – |
| CCCCCc1cc2c(c(O)c1C(=O)OC1(C(C)C)CC=C(C)CC1)[C@@H]1C=C(C)CC[C@H]1C(C)(C)O2 (some centres not stated) | inactive | – |
| CCCCCc1cc2c(c(O)c1C(=O)O[C@@]1(C)CC[C@@H](C(C)C)[C@@H]3C=C(C)CC[C@H]31)[C@@H]1C=C(C)CC[C@H]1C(C)(C)O2 | inactive | – |
| CCCCCc1cc(O)c(C/C=C(\C)CCC=C(C)C)c(O)c1C(=O)OC(C)(C)[C@@H]1CC[C@@]2(C)CCCC(C)=C2C1 | inactive | – |
| CCCCCc1cc2c(c(O)c1C(=O)O)-c1cc(C)ccc1C(C)(C)O2 | inactive | – |
| CCCCCc1cc(O)c(C/C=C(\C)CCC=C(C)C)c(O)c1C(=O)O | inactive | – |
| CCCCCc1cc2c(c(O)c1C(=O)OC(C)(C)[C@@H]1CC[C@@]3(C)CCCC(C)=C3C1)[C@@H]1C=C(C)CC[C@H]1C(C)(C)O2 | inactive | – |
| CCCCCc1cc2c(c(O)c1C(=O)O)[C@@H]1C=C(C)CC[C@H]1C(C)(C)O2 | inactive | – |
| CCCCCc1cc2c(c(O)c1C(=O)OC1(C(C)C)CC=C(C)CC1)-c1cc(C)ccc1C(C)(C)O2 (configuration not stated) | inactive | IC50 (Candida albicans): 8.5 µg/mL (≈ 17.3 µM); IC50 (Plasmodium falciparum [2]): 2.7 µg/mL (≈ 5.5 µM); IC50 (Plasmodium falciparum [3]): 2.4 µg/mL (≈ 4.89 µM) |
